Assay [1] concerns the target T1, HCV polymerase (NS5B) type 1b (Hepatitis C virus genotype 1b, UniProt P26663).
T1 construct: a region encoding NS5B (J Virol 1991 March, 65(3), 1105-13, 544 amino acids after deletion of 47 amino acids on the C-terminal); 6xHis (C); made in house; host or cells: Escherichia coli
The assay can be described thus: Assay of enzyme (HCV polymerase) inhibitory activity, type 1b enzyme. Format: biochemical, HCV BK strain (type 1b). In a few lines:
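Rxn: NS5B 1b (BK, ΔC47, His6) 0.5 μg/ml; substrate RNA 5 μg/ml; ATP/GTP/CTP 50 μM, UTP 2 μM + [5,6-3H]UTP; 20 mM Tris pH 7.5, 5 mM MgCl2, 50 mM NaCl, 1 mM EDTA/DTT. 25 °C, 60 min. Stop with TCA/pyrophosphate, filter, scintillation count; IC50 vs. untreated.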

The target of assay [2] is T2, HCV polymerase (NS5B) type 1a (Hepatitis C virus genotype 1a, UniProt P26664).
T2 construct: made in house; host or cells: Escherichia coli (by the 'similar method' of the 1b enzyme)
Put plainly: Assay of enzyme (HCV polymerase) inhibitory activity, type 1a enzyme. Format: biochemical, HCV type 1a (cloned from the blood of patients). In a few lines: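 NS5B Δ47 C-term His6 (type 1a, 1.5 μg/ml); substrate RNA 5 μg/ml; ATP/GTP/CTP 50 μM, UTP 2 μM + [5,6-3H]UTP; Tris pH 7.5, MgCl2 5 mM; 25° C, 60 min. TCA/pyrophosphate stop, GF/B filter, scintillation. IC50 vs no-compound control.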

[3] abbreviates: HCV polymerase inhibitory activity IC50, 1b, type 1b enzyme.
The mark [4] stands for this setting: HCV polymerase inhibitory activity IC50, 1a, type 1a enzyme.
[5] abbreviates: HCV polymerase inhibitory activity (IC50), 1b, type 1b enzyme 0.5 μg/ml, 25° C., 60 min.
Where [6] appears, read: HCV polymerase inhibitory activity (IC50), 1a, type 1a enzyme 1.5 μg/ml, 25° C., 60 min.

A value given as a limit tells only on which side of the number the result lay.

Usually IC50 stands for the concentration that gives 50% inhibition. A lower IC50 goes with higher potency. On to `CC(=O)N1CCN(S(=O)(=O)c2ccc(OC(F)(F)F)cc2)[C@@H](C(=O)NCCc2cccc(O)c2)C1` [Example 674, (R)-4-acetyl-1-(4-trifluoromethoxy-benzenesulfonyl)-piperazine-2-carboxylic acid [2-(3-hydroxy-phenyl)-ethyl]-amide], for which the IC50 in assay [1] (setting [3]) and in assay [2] (setting [4]) was > 1000 nM throughout.

Take `CCCc1ccc(CNC(=O)[C@H]2CN(c3nc(C)c(CCC(=O)O)s3)CCN2S(=O)(=O)c2ccc(OC(F)(F)F)cc2)cc1` [Example 826, 3-{4-methyl-2-[(R)-3-(4-propyl-benzylcarbamoyl)-4-(4-trifluoromethoxy-benzenesulfonyl)-piperazin-1-yl]-thiazol-5-yl}-propionic acid]: the IC50 in assay [1] (setting [3]) and in assay [2] (setting [4]) was < 100 nM throughout.

Take `CCCc1ccc(CNC(=O)[C@H]2CN(C(C)=O)CCN2S(=O)(=O)c2ccc(C(C)C)cc2)cc1` [Example 294, (R)-4-acetyl-1-(4-isopropyl-benzenesulfonyl)-piperazine-2-carboxylic acid 4-propyl-benzylamide]: the IC50 in assay [1] (setting [5]) and in assay [2] (setting [6]) was < 100 nM each time.

As for `CC(=O)N1CCN(S(=O)(=O)c2ccc(OC(F)(F)F)cc2)[C@@H](C(=O)NCCc2ccc(O)cc2)C1` [Example 675, (R)-4-acetyl-1-(4-trifluoromethoxy-benzenesulfonyl)-piperazine-2-carboxylic acid [2-(4-hydroxy-phenyl)-ethyl]-amide], the IC50 in assay [1] (setting [3]) and in assay [2] (setting [4]) was > 1000 nM each time.

As for `CC(=O)N1CCN(S(=O)(=O)c2ccc(C(C)C)cc2)C(C(=O)NCc2ccc(Cl)cc2Cl)C1` (stereo not drawn) [Example 101, 4-acetyl-1-(4-isopropyl-benzenesulfonyl)-piperazine-2-carboxylic acid 2,4-dichloro-benzylamide], the concentration for half-maximal inhibition (IC50) in assay [1] (setting [5]) and in assay [2] (setting [6]) was > 1000 nM throughout.

Consider `CC(=O)N1CCN(S(=O)(=O)c2ccc(C(C)C)cc2)C(C(=O)NCc2ccccc2F)C1` (stereo not drawn) [Example 67, 4-acetyl-1-(4-isopropyl-benzenesulfonyl)-piperazine-2-carboxylic acid 2-fluoro-benzylamide], for which the 50% inhibitory concentration (IC50) in assay [1] (setting [5]) and in assay [2] (setting [6]) was > 1000 nM each time.

For the compound `O=C(NCc1ccc(OC(F)(F)F)cc1)[C@H]1CN(c2nc3nc(CCO)ncc3s2)CCN1S(=O)(=O)c1ccc(OC(F)(F)F)cc1` [Example 1098, (R)-4-[5-(2-hydroxy-ethyl)-thiazolo[4,5-d]pyrimidin-2-yl]-1-(4-trifluoromethoxy-benzenesulfonyl)-piperazine-2-carboxylic acid 4-trifluoromethoxy-benzylamide], the IC50 in assay [1] (setting [3]) and in assay [2] (setting [4]) was < 100 nM each time.

Turning to `CC(C)c1ccc(CNC(=O)[C@H]2CN(C3CCNC3=O)CCN2S(=O)(=O)c2ccc(C(F)(F)F)cc2)cc1` (stereo partly drawn) [Example 345, (R)-4-(2-oxo-pyrrolidin-3-yl)-1-(4-trifluoromethyl-benzenesulfonyl)-piperazine-2-carboxylic acid 4-isopropyl-benzylamide], the results for the IC50 in assay [1] (setting [5]) and in assay [2] (setting [6]) were 100 to 1000 nM and > 1000 nM, respectively.

`O=C(NCc1ccc(OC(F)(F)F)cc1)[C@H]1CN(c2cnc3nccnc3n2)CCN1S(=O)(=O)c1ccc(OC(F)(F)F)cc1` [Example 749, (R)-4-pyrazino[2,3-b]pyrazin-2-yl-1-(4-trifluoromethoxy-benzenesulfonyl)-piperazine-2-carboxylic acid 4-trifluoromethoxy-benzylamide]: the IC50 in assay [1] (setting [3]) and in assay [2] (setting [4]) was < 100 nM each time.

As to `CC(=O)N1CCN(S(=O)(=O)c2ccc(Br)cc2)C(C(=O)NCc2ccc(C(F)(F)F)cc2)C1` (stereo not drawn) [Example 22, 4-acetyl-1-(4-bromo-benzenesulfonyl)-piperazine-2-carboxylic acid 4-trifluoromethyl-benzylamide], the IC50 in assay [1] (setting [5]) and in assay [2] (setting [6]) was > 1000 nM throughout.

As to `CN(C)c1ccc(CNC(=O)C2CN(C(=O)OC(C)(C)C)CCN2S(=O)(=O)c2ccc(I)cc2)cc1` (stereo not drawn) [Example 82, 3-(4-dimethylamino-benzylcarbamoyl)-4-(4-iodo-benzenesulfonyl)-piperazine-1-carboxylic acid tert-butyl ester], the IC50 in assay [1] (setting [5]) and in assay [2] (setting [6]) was > 1000 nM throughout.

As to `O=C(O)c1cncc2ncc(N3CCN(S(=O)(=O)c4ccc(OC(F)(F)F)cc4)[C@@H](C(=O)NCc4ccc(OC(F)(F)F)cc4)C3)nc12` [Example 806, 2-[(R)-4-(4-trifluoromethoxy-benzenesulfonyl)-3-(4-trifluoromethoxy-benzylcarbamoyl)-piperazin-1-yl]-pyrido[3,4-b]pyrazine-8-carboxylic acid], the IC50 in assay [1] (setting [3]) and in assay [2] (setting [4]) was < 100 nM each time.

For `CC(C)c1ncc2sc(N3CCN(S(=O)(=O)c4ccc(C(F)(F)F)cc4)[C@@H](C(=O)NCc4ccc(OC(F)(F)F)cc4)C3)nc2n1` [Example 991, (R)-4-(5-isopropyl-thiazolo[4,5-d]pyrimidin-2-yl)-1-(4-trifluoromethyl-benzenesulfonyl)-piperazine-2-carboxylic acid 4-trifluoromethoxy-benzylamide], the IC50 in assay [1] (setting [3]) and in assay [2] (setting [4]) was < 100 nM throughout.

Regarding `CCC(F)(F)c1ccc(CNC(=O)[C@H]2CN(C(=O)c3cc(C)on3)CCN2S(=O)(=O)c2ccc(OC(F)(F)F)cc2)cc1` [Example 521, (R)-4-(5-methyl-isoxazole-3-carbonyl)-1-(4-trifluoromethoxy-benzenesulfonyl)-piperazine-2-carboxylic acid 4-(1,1-difluoro-propyl)-benzylamide], the IC50 in assay [1] (setting [5]) was 100 to 1000 nM; in assay [2] (setting [6]), > 1000 nM.

Regarding `Cc1nc(N2CCN(S(=O)(=O)c3ccc(OC(F)(F)F)cc3)[C@@H](C(=O)NCc3ccc(C(C)C)cc3)C2)sc1C(=O)NCCC(=O)O` [Example 361, 3-({2-[(R)-3-(4-isopropyl-benzylcarbamoyl)-4-(4-trifluoromethoxy-benzenesulfonyl)-piperazin-1-yl]-4-methyl-thiazole-5-carbonyl}-amino)-propionic acid], the IC50 in assay [1] (setting [5]) and in assay [2] (setting [6]) was < 100 nM in each case.

In the case of `CC(=O)N1CCN(S(=O)(=O)c2ccc(OC(F)(F)F)cc2)[C@@H](C(=O)NCc2ccc(O)cc2)C1` [Example 613, (R)-4-acetyl-1-(4-trifluoromethoxy-benzenesulfonyl)-piperazine-2-carboxylic acid 4-hydroxy-benzylamide], the IC50 in assay [1] (setting [5]) and in assay [2] (setting [6]) was > 1000 nM throughout.

Take `O=C(NCc1ccc(OC(F)(F)F)cc1)[C@H]1CN(c2cnc3cnccc3n2)CCN1S(=O)(=O)c1ccc(N2CCCC2)cc1` [Example 755, (R)-4-pyrido[3,4-b]pyrazin-2-yl-1-(4-pyrrolidin-1-yl-benzenesulfonyl)-piperazine-2-carboxylic acid 4-trifluoromethoxy-benzylamide]: the IC50 in assay [1] (setting [3]) and in assay [2] (setting [4]) was < 100 nM each time.

`CCC(F)(F)c1ccc(CNC(=O)[C@H]2CN(C(=O)Nc3cc(C)no3)CCN2S(=O)(=O)c2ccc(OC(F)(F)F)cc2)cc1` [Example 528, (R)-4-(4-trifluoromethoxy-benzenesulfonyl)-piperazine-1,3-dicarboxylic acid 3-[4-(1,1-difluoro-propyl)-benzylamide] 1-[(3-methyl-isoxazol-5-yl)-amide]]: the IC50 in assay [1] (setting [5]) is < 100 nM; in assay [2] (setting [6]), 100 to 1000 nM.

Source of the values: patent publication US8017612B2, “Piperazine compound and use thereof as a HCV polymerase inhibitor” (priority 2006, dated 2011).
